# Test results reported in publication PMC10132233 (Journal of Enzyme Inhibition and Medicinal Chemistry, 2023).
# Key:
# PC3 cells = assay: Apoptosis analysis (Annexin V-PE/DAPI), PC3; assay type: cell-based, human; details: PC3, compound at its IC50, 24 h
# Experimental: (§1) The control PC3 and 22RV1 cells and compound-treated cells were stained with PE-Annexin V and DAPI for a more appropriate cell death examination, and the cellular fluorescence analysis was then performed using ADAMII LS (Figures 4–6). Apoptosis is a type of programmed cell death that can be detected using Annexin V and the DAPI reagent. On plasma membranes, annexin V binds to […] and DAPI can bind to DNA in cells. The dot plot and image data detect early and late apoptotic cells using these two fluorophores. […] Moreover, compound 9f-treated PC3 cells went through early apoptosis (6.27%), and late apoptosis phase (16.94%) (Figures 4(D) and 6). Likewise, the fluorescence images for 22RV1 (Figure 5) and PC3 (Figure 6) cells complement the dot plot data, as higher fluorescence of DAPI and RF images clearly distinguished compound 9f-treated cells from control. […]
# (§2) Annexin V conjugated to fluorochromes (PE) retains its high affinity for phosphatidylserine (PS), making it a sensitive probe for flow cytometric analysis of apoptotic cells. […] When apoptosis is measured over time, cells can often be tracked from PE Annexin V and DAPI negative (viable, or no measurable apoptosis), to PE Annexin V positive and DAPI negative (early apoptosis), and finally to PE Annexin V and DAPI positive (end stage apoptosis and death). […]
# HER2 = HER2 (Homo sapiens, UniProt P04626); assay: HotSpot kinase assay over HER2 (Reaction Biology)
# EGFR = EGFR (Homo sapiens, UniProt P00533); assay: HotSpot kinase assay over EGFR (Reaction Biology)
# 22RV1 cells = assay: Apoptosis analysis (Annexin V-PE/DAPI), 22RV1; assay type: cell-based, human; details: 22RV1, compound at its IC50, 24 h
# Experimental: as §1, §2
# [1] = target: T1, c-mesenchymal-epithelial transition factor (c-MET) (Homo sapiens, UniProt P08581); assay: Small kinase panel, c-MET; assay type: biochemical; details: read-out: % kinase inhibition (relative to DMSO control) c-MET
# T1 construct: purchased Reaction Biology Co. (Malvern, PA)
# Experimental: Enzyme inhibitory assays were carried out as described in our previous reports in the literature. […] The HotSpot assay platform includes specific kinase/substrate pairs and required cofactors. The base reaction buffer consisted of 20 mM Hepes (pH 7.5), 10 mM MgCl2, 1 mM EGTA, 0.02% Brij35, 0.02 mg/mL BSA, 0.1 mM Na3VO4, 2 mM DTT, and 1% DMSO. The tested compounds were dissolved in 100% DMSO to a specific concentration, and serial dilution was conducted. The reaction mixture containing the tested compound and 33P-ATP was incubated at room temperature for 2 h, and radioactivity was detected using the filter-binding method.
# Sequence of EGFR (P00533 25-1210): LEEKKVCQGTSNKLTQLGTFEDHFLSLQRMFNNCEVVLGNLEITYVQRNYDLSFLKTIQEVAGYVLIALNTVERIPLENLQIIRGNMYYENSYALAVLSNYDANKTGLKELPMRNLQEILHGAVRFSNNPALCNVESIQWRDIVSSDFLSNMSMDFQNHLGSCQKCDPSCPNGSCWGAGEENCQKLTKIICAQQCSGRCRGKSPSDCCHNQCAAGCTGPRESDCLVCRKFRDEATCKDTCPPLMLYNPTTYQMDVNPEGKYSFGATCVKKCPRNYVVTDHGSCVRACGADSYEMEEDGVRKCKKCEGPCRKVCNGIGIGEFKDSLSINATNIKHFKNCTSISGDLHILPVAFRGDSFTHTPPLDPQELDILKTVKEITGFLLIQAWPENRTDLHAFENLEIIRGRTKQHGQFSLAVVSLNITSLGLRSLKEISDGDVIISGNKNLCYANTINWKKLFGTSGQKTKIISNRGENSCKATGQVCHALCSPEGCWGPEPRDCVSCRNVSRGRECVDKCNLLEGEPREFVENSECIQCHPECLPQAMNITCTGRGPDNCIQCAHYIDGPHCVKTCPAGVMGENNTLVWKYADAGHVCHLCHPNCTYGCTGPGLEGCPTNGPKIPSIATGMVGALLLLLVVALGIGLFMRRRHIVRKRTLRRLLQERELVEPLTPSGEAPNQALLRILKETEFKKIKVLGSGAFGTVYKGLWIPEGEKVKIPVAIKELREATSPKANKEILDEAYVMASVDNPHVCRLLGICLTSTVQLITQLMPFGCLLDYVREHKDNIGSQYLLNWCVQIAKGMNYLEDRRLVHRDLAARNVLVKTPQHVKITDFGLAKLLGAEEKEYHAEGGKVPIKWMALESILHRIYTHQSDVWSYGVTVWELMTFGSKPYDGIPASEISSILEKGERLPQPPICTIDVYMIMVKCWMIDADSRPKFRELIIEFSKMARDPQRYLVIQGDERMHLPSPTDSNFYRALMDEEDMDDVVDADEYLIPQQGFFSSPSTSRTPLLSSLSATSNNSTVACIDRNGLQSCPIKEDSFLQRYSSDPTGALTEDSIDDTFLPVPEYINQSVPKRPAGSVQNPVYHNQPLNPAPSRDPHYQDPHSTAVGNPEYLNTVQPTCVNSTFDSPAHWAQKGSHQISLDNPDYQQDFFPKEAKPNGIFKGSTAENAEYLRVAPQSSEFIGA
# Sequence of HER2 (P04626 23-1255): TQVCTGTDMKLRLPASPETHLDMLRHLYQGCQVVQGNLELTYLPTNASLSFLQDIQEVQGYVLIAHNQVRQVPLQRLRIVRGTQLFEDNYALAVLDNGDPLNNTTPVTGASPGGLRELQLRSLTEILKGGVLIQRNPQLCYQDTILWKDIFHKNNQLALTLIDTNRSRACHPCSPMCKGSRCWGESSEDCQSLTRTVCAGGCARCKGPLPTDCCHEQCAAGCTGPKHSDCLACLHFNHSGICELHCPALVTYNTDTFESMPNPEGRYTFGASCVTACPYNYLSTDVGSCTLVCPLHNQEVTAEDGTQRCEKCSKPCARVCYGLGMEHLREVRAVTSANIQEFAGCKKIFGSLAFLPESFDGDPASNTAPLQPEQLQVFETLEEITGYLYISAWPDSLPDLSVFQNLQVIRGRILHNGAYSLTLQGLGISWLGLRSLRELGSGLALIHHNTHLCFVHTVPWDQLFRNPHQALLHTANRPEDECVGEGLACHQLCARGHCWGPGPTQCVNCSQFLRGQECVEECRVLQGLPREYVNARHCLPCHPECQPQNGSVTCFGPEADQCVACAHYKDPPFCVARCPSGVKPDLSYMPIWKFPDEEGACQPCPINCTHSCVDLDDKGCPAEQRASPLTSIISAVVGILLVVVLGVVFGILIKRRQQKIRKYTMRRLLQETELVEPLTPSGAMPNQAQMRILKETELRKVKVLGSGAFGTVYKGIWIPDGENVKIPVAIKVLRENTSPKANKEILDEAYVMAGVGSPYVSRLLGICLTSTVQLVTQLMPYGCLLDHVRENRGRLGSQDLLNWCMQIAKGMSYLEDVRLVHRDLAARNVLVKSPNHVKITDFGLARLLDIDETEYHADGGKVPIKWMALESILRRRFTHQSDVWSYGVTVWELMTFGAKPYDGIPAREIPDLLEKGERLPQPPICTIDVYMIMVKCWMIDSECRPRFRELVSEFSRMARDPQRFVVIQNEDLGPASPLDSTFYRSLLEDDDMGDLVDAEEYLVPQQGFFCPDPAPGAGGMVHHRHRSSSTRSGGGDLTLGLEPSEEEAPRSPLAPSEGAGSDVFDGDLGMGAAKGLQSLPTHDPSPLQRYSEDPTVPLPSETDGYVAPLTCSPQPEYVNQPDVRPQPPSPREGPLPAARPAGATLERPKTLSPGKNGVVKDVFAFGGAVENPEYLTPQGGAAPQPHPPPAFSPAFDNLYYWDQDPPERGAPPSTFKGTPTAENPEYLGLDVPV
# T1 sequence (P08581 25-1390): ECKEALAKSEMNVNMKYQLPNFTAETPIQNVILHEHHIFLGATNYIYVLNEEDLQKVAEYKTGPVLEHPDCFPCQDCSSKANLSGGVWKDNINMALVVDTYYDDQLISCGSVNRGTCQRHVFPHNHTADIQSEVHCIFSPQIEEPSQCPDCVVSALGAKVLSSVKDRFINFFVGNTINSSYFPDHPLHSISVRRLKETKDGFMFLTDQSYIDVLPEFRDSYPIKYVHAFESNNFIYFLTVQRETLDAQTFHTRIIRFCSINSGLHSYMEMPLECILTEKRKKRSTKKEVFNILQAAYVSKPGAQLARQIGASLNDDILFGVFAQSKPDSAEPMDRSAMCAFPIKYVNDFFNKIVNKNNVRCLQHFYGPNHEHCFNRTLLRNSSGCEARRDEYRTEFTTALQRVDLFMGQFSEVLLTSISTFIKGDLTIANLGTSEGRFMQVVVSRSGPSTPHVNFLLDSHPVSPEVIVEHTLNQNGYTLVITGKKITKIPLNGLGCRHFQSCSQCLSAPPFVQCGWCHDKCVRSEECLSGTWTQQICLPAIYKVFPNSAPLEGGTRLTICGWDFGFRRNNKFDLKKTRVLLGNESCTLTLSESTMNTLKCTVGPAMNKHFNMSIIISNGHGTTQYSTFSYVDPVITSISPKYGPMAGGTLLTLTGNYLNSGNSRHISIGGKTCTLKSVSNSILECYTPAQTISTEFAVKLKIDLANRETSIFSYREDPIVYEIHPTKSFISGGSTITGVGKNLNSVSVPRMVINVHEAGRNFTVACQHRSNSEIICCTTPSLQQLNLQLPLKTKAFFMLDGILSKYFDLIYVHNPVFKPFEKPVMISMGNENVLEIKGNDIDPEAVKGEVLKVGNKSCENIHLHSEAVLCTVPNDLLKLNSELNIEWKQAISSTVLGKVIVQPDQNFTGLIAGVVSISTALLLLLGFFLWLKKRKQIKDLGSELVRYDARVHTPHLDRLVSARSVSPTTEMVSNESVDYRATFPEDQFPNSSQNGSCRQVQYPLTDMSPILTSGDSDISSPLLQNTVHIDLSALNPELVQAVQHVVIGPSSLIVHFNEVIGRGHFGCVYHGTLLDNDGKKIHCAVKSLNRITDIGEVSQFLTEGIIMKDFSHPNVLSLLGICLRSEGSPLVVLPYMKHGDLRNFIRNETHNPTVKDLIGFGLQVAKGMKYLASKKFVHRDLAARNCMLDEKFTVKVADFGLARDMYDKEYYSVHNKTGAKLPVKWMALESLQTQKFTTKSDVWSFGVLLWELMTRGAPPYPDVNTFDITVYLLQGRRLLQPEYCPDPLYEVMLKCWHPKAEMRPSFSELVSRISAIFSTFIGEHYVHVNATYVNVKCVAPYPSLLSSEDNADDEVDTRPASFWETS
smiles,measurement,setting,value
"COc1cc2ncnc(Nc3ccc(Oc4cccc(C(F)(F)F)c4)c(Cl)c3)c2cc1OCCCCn1ccnc1[N+](=O)[O-] [Compound 9f, N-(3-Chloro-4-(3-(trifluoromethyl)phenoxy)phenyl)-7-methoxy-6-(4-(2-nitro-1H-imidazol-1-yl)butoxy)quinazolin-4-amine]",early apoptosis (E.A),PC3 cells,6.27%
same,late apoptosis (L.A),PC3 cells,16.94%
same,IC50,HER2,0.234 µM
same,inhibition at 10 µM,HER2; read-out: % kinase inhibition HER2,98%
same,IC50,EGFR,0.0023 µM
same,fold of potency over EGFR compared to TAK-285,EGFR; ratio of IC50 values,10 fold
same,fold of potency over EGFR compared to staurosporine,EGFR; ratio of IC50 values,38 fold
same,inhibition at 10 µM,EGFR; read-out: % kinase inhibition EGFR,99.3%
same,early apoptosis (E.A),22RV1 cells,13.20%
same,late apoptosis (L.A),22RV1 cells,15.38%
same,inhibition at 10 µM,[1],24.6%
